How the values were obtained:
SH-SY5Y [1] = test: Neuroprotection against 6-OHDA-induced oxidative stress in human SH-SY5Y cells assessed as cell protection at 10 uM preincubated for 2 hr before 6-OHDA challenge and measured after 24 hrs by MTT assay; format: functional; conditions: time 26 hrs
SH-SY5Y [2] = test: Cytotoxicity against human SH-SY5Y cells assessed as reduction in cell viability measured after 24 hrs by MTT assay; format: cell-based
SH-SY5Y [3] = test: Neuroprotection against H202-induced oxidative stress in human SH-SY5Y cells assessed as cell protection at 10 uM preincubated for 2 hr before H202 challenge and measured after 24 hrs by MTT assay; format: functional
SH-SY5Y [4] = test: Neuroprotection against Abeta-induced oxidative stress in human SH-SY5Y cells assessed as cell protection at 10 uM incubated for 2 hr before Abeta(1-42) challenge and measured after 24 hrs by MTT assay; format: functional; conditions: time 26 hrs

For `Cc1ccc2[nH]cc(CC(=O)Oc3ccc4c(c3)CC[C@@H]3[C@@H]4CC[C@]4(C)[C@@H]5[C@H](C[C@@H]34)O[C@]3(CC[C@@H](C)CO3)[C@H]5C)c2c1`, the Activity (SH-SY5Y [1]) was 18.8%, the Activity (SH-SY5Y [2]) was “Non-Toxic” and the Activity (SH-SY5Y [3]) was 14.6%.

In the case of `C[C@@H]1CC[C@@]2(OC1)O[C@H]1C[C@H]3[C@@H]4CCc5cc(OC(=O)NCCc6c[nH]c7ccc(F)cc67)ccc5[C@H]4CC[C@]3(C)[C@H]1[C@@H]2C`, the Activity (SH-SY5Y [1]) is reported as 47.7%, the Activity (SH-SY5Y [4]) is reported as 44.8% and the Activity (SH-SY5Y [2]) is reported as “Non-Toxic”. It also gave an Activity (SH-SY5Y [3]) of 43.4%.

Compound `C[C@@H]1CC[C@@]2(OC1)O[C@H]1C[C@H]3[C@@H]4CC=C5C[C@@H](O)CC[C@]5(C)[C@H]4CC[C@]3(C)[C@H]1[C@@H]2C` [DISOGENIN] has an Activity (SH-SY5Y [1]) of 14.2%, an Activity (SH-SY5Y [4]) of 7.4% and an Activity (SH-SY5Y [3]) of 9.2%.

In the case of `C[C@@H]1CC[C@@]2(OC1)O[C@H]1C[C@H]3[C@@H]4CCc5cc(OC(=O)Cc6c[nH]c7cc(Cl)ccc67)ccc5[C@H]4CC[C@]3(C)[C@H]1[C@@H]2C`, the Activity (SH-SY5Y [1]) is reported as 10.9%, the Activity (SH-SY5Y [2]) is reported as “Non-Toxic” and the Activity (SH-SY5Y [3]) is reported as 13.4%.

`C[C@@H]1CC[C@@]2(OC1)O[C@H]1C[C@H]3[C@@H]4CCc5cc(OC(=O)NCCc6c[nH]c7ccc(Cl)cc67)ccc5[C@H]4CC[C@]3(C)[C@H]1[C@@H]2C` was tested, and the Activity (SH-SY5Y [1]) was 15.8%, the Activity (SH-SY5Y [2]) was “Non-Toxic” and the Activity (SH-SY5Y [3]) was 38.6%.

With `COc1ccc2[nH]cc(CC(C)NC(=O)Oc3ccc4c(c3)CC[C@@H]3[C@@H]4CC[C@]4(C)[C@@H]5[C@H](C[C@@H]34)O[C@]3(CC[C@@H](C)CO3)[C@H]5C)c2c1` (stereo not given in full) the Activity (SH-SY5Y [1]) was 25.8%, the Activity (SH-SY5Y [4]) was 37.2% and the Activity (SH-SY5Y [2]) was “Non-Toxic”. For the same compound, the Activity (SH-SY5Y [3]) was 43.6%.

For `COc1ccc2[nH]c(C)c(CC(=O)Oc3ccc4c(c3)CC[C@@H]3[C@@H]4CC[C@]4(C)[C@@H]5[C@H](C[C@@H]34)O[C@]3(CC[C@@H](C)CO3)[C@H]5C)c2c1`, the Activity (SH-SY5Y [1]) was 42.3%, the Activity (SH-SY5Y [4]) was 26.9% and the Activity (SH-SY5Y [2]) was “Non-Toxic”. For the same compound, the Activity (SH-SY5Y [3]) was 37.7%.

With `COc1ccc2c(CC(=O)Oc3ccc4c(c3)CC[C@@H]3[C@@H]4CC[C@]4(C)[C@@H]5[C@H](C[C@@H]34)O[C@]3(CC[C@@H](C)CO3)[C@H]5C)c[nH]c2c1` the Activity (SH-SY5Y [2]) was “Toxic”.

With `C[C@@H]1CC[C@@]2(OC1)O[C@H]1C[C@H]3[C@@H]4CCc5cc(OC(=O)Cc6c[nH]c7ccc(Br)cc67)ccc5[C@H]4CC[C@]3(C)[C@H]1[C@@H]2C` the Activity (SH-SY5Y [1]) was 4.2%, the Activity (SH-SY5Y [2]) was “Non-Toxic” and the Activity (SH-SY5Y [3]) was 15.8%.

`C[C@@H]1CC[C@@]2(OC1)O[C@H]1C[C@H]3[C@@H]4CCc5cc(OC(=O)Cc6c[nH]c7ccc(F)cc67)ccc5[C@H]4CC[C@]3(C)[C@H]1[C@@H]2C` was tested, and the Activity (SH-SY5Y [1]) was 20.2%, the Activity (SH-SY5Y [2]) was “Non-Toxic” and the Activity (SH-SY5Y [3]) was 13.3%.

For `Cc1[nH]c2ccccc2c1CC(=O)Oc1ccc2c(c1)CC[C@@H]1[C@@H]2CC[C@]2(C)[C@@H]3[C@H](C[C@@H]12)O[C@]1(CC[C@@H](C)CO1)[C@H]3C`, the Activity (SH-SY5Y [1]) was 30.5%, the Activity (SH-SY5Y [2]) was “Non-Toxic” and the Activity (SH-SY5Y [3]) was 22.7%.

`C[C@@H]1CC[C@@]2(OC1)O[C@H]1C[C@H]3[C@@H]4CCc5cc(OC(=O)NCCc6c[nH]c7ccc(Br)cc67)ccc5[C@H]4CC[C@]3(C)[C@H]1[C@@H]2C` was tested, and the Activity (SH-SY5Y [1]) was 27.9%, the Activity (SH-SY5Y [2]) was “Non-Toxic” and the Activity (SH-SY5Y [3]) was 29.6%.

In the case of `Cc1[nH]c2ccccc2c1CCNC(=O)Oc1ccc2c(c1)CC[C@@H]1[C@@H]2CC[C@]2(C)[C@@H]3[C@H](C[C@@H]12)O[C@]1(CC[C@@H](C)CO1)[C@H]3C`, the Activity (SH-SY5Y [1]) is reported as 34.4%, the Activity (SH-SY5Y [2]) is reported as “Non-Toxic” and the Activity (SH-SY5Y [3]) is reported as 31.1%.

Reference: ChEMBL document CHEMBL4819077, “Design, synthesis, and biological evaluation of diosgenin-indole derivatives as dual-functional agents for the treatment of Alzheimer's disease” (Eur J Med Chem, 2021)
